This is an account of results in patent publication US10709704B2, “Treating neural disease with tyrosine kinase inhibitors” (GEORGETOWN UNIVERSITY, priority 2012, dated 2020).

SMILES strings stand for the structures.

Data set [1] has as its system autophagic vacuoles and lysosomes. The data set can be described thus: Subcellular fractionation (AV-10, AV-20, lysosome) and ELISA, Tg-APP mice. The format is in vivo, mouse. Here is the method:
Histograms show Aβ1-42 in subcellular fractions, including autophagic vacuole-10 (AV-10; phagophores+autophagosomes), AV-20 (autophagosomes) and lysosomes. […] Brain tissues were fractionated to isolate AVs and human specific ELISA was performed to determine protein contents. N=5 animals per treatment.
(§1) 0.5 g of Frozen human or animal brains were homogenized at low speed (Cole-Palmer homogenizer, LabGen 7, 115 Vac) in 1×STEN buffer and centrifuged at 1,000 g for 10 minutes to isolate the supernatant from the pellet. The pellet was re-suspended in 1×STEN buffer and centrifuged once to increase the recovery of lysosomes. The pooled supernatants were then centrifuged at 100,000 rpm for 1 hour at 4° C. to extract the pellet containing autophagic vacuoles (AVs) and lysosomes. The pellet was then re-suspended in 10 ml (0.33 g/ml) 50% Metrizamide and 10 ml in cellulose nitrate tubes. A discontinuous Metrizamide gradient was constructed in layers from bottom to top as follows: 6 ml of pellet suspension, 10 ml of 26%; 5 ml of 24%; 5 ml of 20%; and 5 ml of 10% Metrizamide (Marzella et al., 1982). After centrifugation at 10,000 rpm for 1 hour at 4° C., the fraction floating on the 10% layer (Lysosome) and the fractions banding at the 24%/20% (AV 20) and the 20%/10% (AV10) Metrizamide inter-phases were collected by a syringe and examined.
as §1, with “Animal” for “0.5 g of Frozen human or animal”, “100.000” for “100,000”, “[…]” for “4°”, “Metrizamide.” for “Metrizamide (Marzella et al., 1982).”, “100,000” for “10,000”, “40 C,” for “4° C.,”

The subject of data set [2] is molecular markers of autophagy. The data set can be described thus: Western blot of autophagy markers, lentiviral Aβ1-42 parkin−/− mice. The class given is in vivo, mouse.
The test system of data set [3] is autophagic vacuoles and lysosomes. The experiment in a line: Subcellular fractionation and ELISA, lentiviral Aβ1-42 mice. The class given is in vivo, mouse. Here is the method: Histograms show Aβ1-42 in subcellular fractions, including autophagic vacuole-10 (AV-10; phagophores+autophagosomes), AV-20 (autophagosomes) and lysosomes. […] Brain tissues were fractionated to isolate AVs and human specific ELISA was performed to determine protein contents. […] N=5 animals per treatment.
Brain tissues were fractionated to isolate AVs and human specific ELISA was performed to determine protein contents.
as §1
Animal brains were homogenized at low speed (Cole-Palmer homogenizer, LabGen 7, 115 Vac) in 1×STEN buffer and centrifuged at 1,000 g for 10 minutes to isolate the supernatant from the pellet. The pellet was re-suspended in 1×STEN buffer and centrifuged once to increase the recovery of lysosomes. The pooled supernatants were then centrifuged at 100.000 rpm for 1 hour at […] to extract the pellet containing autophagic vacuoles (AVs) and lysosomes. The pellet was then re-suspended in 10 ml (0.33 g/ml) 50% Metrizamide and 10 ml in cellulose nitrate tubes. […]

A further data set relates to GFP-tagged TDP-43. The data set can be described thus: Distribution of GFP-tagged TDP-43 in M17 cells. The class given is cell-based, human. On the set-up: distribution of GFP-tagged TDP-43 / translocation of GFP-tagged TDP-43 with Nilotinib or Bosutinib: unit of the concentration uncertain. The following applies: Nilotinib (10 µM) or Bosutinib (5 µM) for additional 24 hrs. The procedure: Human neuroblastoma M17 cells (seeding density 2×10^5 cells) were grown in 24 well dishes (Falcon) to 70% confluence in Dulbecco's Modified Eagle Medium (DMEM; Invitrogen) plus 10% (v/v) heat-inactivated fetal bovine serum (Invitrogen), penicillin/streptomycin, and 2 mM L-glutamine at 37° C. and 5% CO2, washed twice in phosphate-buffered saline (PBS). Transient transfection was performed with 3 μg parkin cDNA or 3 μg TDP-43 cDNA, or 3 μg LacZ cDNA. Cells were treated with 5 μM tubacin for 24 hours and DAPI stained in 12 well dishes. Cells were harvested 24 hours after transfection. Transfection was performed in DMEM without serum using Lipofectamine 2000 (Invitrogen) according to the manufacturer's protocol. […] Western blot was performed on NuPAGE 4-12% Bis-Tris gel (Invitrogen). Protein estimation was performed using the microscale BioRad protein assay (BioRad Laboratories Inc, Hercules, Calif., USA).
To ascertain that both parkin and HDAC6 are required for TDP-43 translocation, GFP-tagged TDP-43 was expressed in M17 neuroblastoma cells in the presence of wild type or loss-of-function mutant (T240R) parkin, and treated with 5 μM selective HDAC6 inhibitor for 24 hours.
The following data support these conclusions.

The subject of another data set is Tg-APP mice. The experiment in a line: Novel object recognition, Tg-APP mice. The format is in vivo, mouse. The following applies: Tg-APP+Nilotinib. Here is the method: Mice were placed individually in a 22×32×30 cm testing chamber for a 5 min habituation interval and returned to their home cages. Thirty minutes later mice were placed in the testing chamber for 10 min with two identical objects (acquisition session), then returned to their home cages and […] placed back in the testing chamber in the presence with one of the original objects and one novel object of the same size but of a different color and shape (recognition session). Sessions were video recorded. Time spent exploring the objects were scored by blind observer. The recognition index was calculated as (time exploring one of the objects/time exploring both objects)×100 for acquisition session, and (time exploring new object/time exploring both familiar and novel objects)×100 for the recognition session. Statistical calculations to estimate differences between sessions were performed with a pairwise t-test.
These experiments were repeated in 1 year old Tg-APP mice and age-matched control (C57BL/6).

Another data set has as its system caspase-3 activity. The data set can be described thus: Caspase-3 activity, lentiviral α-Synuclein mice. The class given is in vivo, mouse. The text has this:
To measure caspase-3 activity in the animal models, we used EnzChek® caspase-3 assay kit #1 (Invitrogen) on cortical extracts and Z-DEVD-AMC substrate and the […] was read according to manufacturer's protocol.

A further data set has as its system caspase-3 activation. Here is the method:
Lentiviral constructs encoding LacZ, or Aβ1-42 were stereotaxically injected 1×106 multiplicity of infection (m.o.i) bilaterally into the CA1 hippocampus of 1 year old C57BL/6 or parkin−/−. A Total of […] lentiviral stocks were delivered at a rate of 0.2 μl/min and. All procedures were approved by the Georgetown University Animal Care and Use Committee (GUACUC).
Aβ and p-Tau enzyme-linked immunosorbent assay (ELISA) using specific p-Tau, Aβ1-40 and Aβ1-42 ELISA and caspase-3 activity were performed according to manufacturer's protocol.

[4] abbreviates: IP 10 mg/kg Nilotinib or 5 mg/Kg Bosutinib daily 3 weeks.
Setting [5] is: lentiviral Aβ1-42 mice, IP 10 mg/kg Nilotinib or 5 mg/Kg Bosutinib daily 3 weeks.

With `Cc1cn(-c2cc(NC(=O)c3ccc(C)c(Nc4nccc(-c5cccnc5)n4)c3)cc(C(F)(F)F)c2)cn1` [Nilotinib], in data set [1] (setting [4]), the “autophagic clearance of Aβ1-40 (deposition in AV-20 and lysosome)” value was “enhances autophagic clearance”; the “autophagic clearance of Aβ1-42 (deposition in AV-20 and lysosome)” value is recorded as “enhances autophagic clearance”; the “autophagic clearance of p-Tau ser 396 (deposition in AV-20 and lysosome)” value is recorded as “enhances autophagic clearance”. In addition, the “autophagic clearance of parkin (deposition in AV-20 and lysosome)” value in data set [1] (IP 10 mg/kg Nilotinib or 5 mg/kg Bosutinib daily 3 weeks) is on record as “enhances autophagic clearance”. In addition, in data set [2], the “Atg12 and Atg5 levels (WB)” value is on record as “not changed”; the “LC3-II (WB)” value is reported as “did not clear”. For the same compound, in data set [3] (setting [5]), the “autophagic clearance of Aβ1-42 (deposition in AV-20 and lysosome)” value is “enhances autophagic clearance”; the “autophagic clearance of p-Tau ser 396 (deposition in AV-20 and lysosome)” value is “enhances autophagic clearance”. Besides, the “autophagic clearance of Aβ1-42 (deposition in AV-20 and lysosomes)” value in data set [3] (wild type or Tau−/− mice, lentiviral Aβ1-42, 10 mg/kg Nilotinib or 5 mg/Kg Bosutinib daily 3 weeks) is on record as “enhances autophagic clearance”. Moreover, the “distribution of GFP-tagged TDP-43” value in the data set with GFP-tagged TDP-43 is listed as “translocation of GFP-tagged TDP-43 from nucleus (A) into the cytosol”. In addition, in the data set on Tg-APP mice, the “better performance at finding new objects than DMSO mice” value was determined as 31%. Besides, the “caspase-3 activity, Nilotinib vs DMSO” value with caspase-3 activity (LacZ injected mice, daily IP 10 mg/kg) is “did not result in any difference”. The caspase-3 activity with caspase-3 activity (lentiviral α-Synuclein mice, daily IP 10 mg/kg Nilotinib 3 weeks) is recorded as 140 % of LacZ levels. Also, the “increase in caspase-3 activation” value with caspase-3 activation (lentiviral Aβ1-42 parkin−/− mice with Nilotinib (without 180%)) came to 165%. In the data set on caspase-3 activation (lentiviral Aβ1-42 wild type mice, 10 mg/kg daily 3 weeks (DMSO 165%)), the “caspase-3 activation above control” value amounted to 45 % above control.
